Patent US20060165649A1, “Methods of using and compositions comprising selective cytokine inhibitory drugs for the treatment and management of myeloproliferative diseases” (priority 2002, published 2006)

Test system: anesthetized dogs
Assay: Cardiovascular and respiratory function in anesthetized dogs (safety pharmacology)
Type: in vivo
Details: anesthetized Beagle dogs; three ascending doses 400, 800, and 1,200 mg/kg/day; infusion through the jugular vein; compared to the vehicle control group
Method: The pharmacological properties of 3-(3,4-dimethoxy-phenyl)-3-(1-oxo-1,3-dihydro-isoindol-2-yl)-propionamide, including activity comparisons with thalidomide, are characterized in in vitro studies. Studies examine the effects of 3-(3,4-dimethoxy-phenyl)-3-(1-oxo-1,3-dihydro-isoindol-2-yl)-propionamide on the production of various cytokines. In addition, a safety pharmacology study of 3-(3,4-dimethoxy-phenyl)-3-(1-oxo-1,3-dihydro-isoindol-2-yl)-propionamide is conducted in dogs and the effects of the compound on ECG parameters are examined further as part of three repeat-dose toxicity studies in primates.
The effects of 3-(3,4-dimethoxy-phenyl)-3-(l-oxo-1,3-dihydro-isoindol-2-yl)-propionamide on cardiovascular and respiratory function are investigated in anesthetized dogs. Two groups of Beagle dogs (2/sex/group) are used. One group receives three doses of vehicle only and the other receives three ascending doses of 3-(3,4-dimethoxy-phenyl)-3-(1-oxo-1,3-dihydro-isoindol-2-yl)-propionamide (400, 800, and 1,200 mg/kg/day). In all cases, doses of 3-(3,4-dimethoxy-phenyl)-3-(1-oxo-1,3-dihydro-isoindol-2-yl)-propionamide or vehicle are successively administered via infusion through the jugular vein separated by intervals of at least 30 minutes. […]

Q: `COc1ccc(C(CC(N)=O)N2Cc3ccccc3C2=O)cc1OC` (stereo not shown) [3-(3,4-dimethoxy-phenyl)-3-(1-oxo-1,3-dihydro-isoindol-2-yl)-propionamide] was tested. Which “cardiovascular and respiratory changes” value did it give?
A: minimal
